Results on eight molecules are retold here after patent US9315602B2, “Method for producing olefin polymer” (Mitsui Chemicals, Inc., priority 2012, dated 2016).

Data set [1] is described as follows: Solubility of bridged metallocene compound in n-hexane at 25° C. Particulars: nitrogen atmosphere, 10 mg of catalyst.
Data set [2] can be described thus: Propylene polymerization with catalyst solution (polymerization activity). Here is the method:
An autoclave made of SUS and having an inner volume of 15 mL was thoroughly purged with nitrogen, and 0.4 mL (0.05 M, 20 μmol) of triisobutylaluminum and 2.7 mL of a solvent which served as a polymerization solvent and in which cyclohexane and hexane had been mixed with each other at a mixing ratio of cyclohexane:hexane=9:1 (volume ratio) were put into the autoclave. The content was stirred at 600-times rotation per minute. […]
Under a nitrogen atmosphere, 2.5 mg (molecular weight: 835.07 g/mol) of the catalyst (a) which served as a bridged metallocene compound was put into a Schlenk flask and dissolved in 5.5 mL of hexane. Then, 0.36 mL of a suspension of modified methylaluminoxane (n-hexane solvent, 4.15 M and 1.49 mmol on an aluminum atom basis) was added thereto at room temperature under stirring to prepare a catalyst solution in which the concentration of the catalyst (a) was 0.00051 M.
The catalyst solution was held at room temperature under a nitrogen atmosphere for 30 minutes, 0.2 mL (0.00051 M, 0.10 μmol) of the catalyst solution and 0.7 mL of a solvent which served as a polymerization solvent and in which cyclohexane and hexane had been mixed with each other at a mixing ratio of cyclohexane:hexane=9:1 (volume ratio) were subsequently put into the autoclave, and then the temperature was increased to 65° C. to initiate polymerization. […]

On to `CC(C)(C)c1cc2c3cc(C(C)(C)C)c(-c4ccccc4)cc3[c-](C(Cc3ccccc3)(Cc3ccccc3)[c-]3cccc3)c2cc1-c1ccccc1.[Cl-].[Cl-].[Zr+4]` [catalyst (h), Dibenzylmethylene(cyclopentadienyl)(2,7-diphenyl-3,6-di-tert-butylfluorenyl)zirconium Dichloride, reference compound], for which the “solubility determined from the amount of n-hexane necessary for the dissolution” value (“solubility determined from the amount” below) in data set [1] is listed as “not more than 0.278 mmol/L”. Take “Benzyl(p-chlorophenyl)methylene(cyclopentadienyl)(2,7-di-p-chlorophenyl-3,6-di-tert-butylfluorenyl)zirconium Dichloride [catalyst (d)]”: in data set [1], the “solubility determined from the amount” value turned out to be 901 µM.

As to “Benzyl(p-chlorophenyl)methylene(cyclopentadienyl)(2,7-diphenyl-3,6-di-tert-butylfluorenyl)zirconium Dichloride [catalyst (c)]”, the “solubility determined from the amount” value in data set [1] was found to be 1585 µM. As for “Benzyl(phenyl)methylene(cyclopentadienyl)(2,7-di-p-chlorophenyl-3,6-di tert-butylfluorenyl)zirconium Dichloride [catalyst (b)]”, the “solubility determined from the amount” value in data set [1] was 4098 µM. With “Benzyl(phenyl)methylene(cyclopentadienyl)(2,7-diphenyl-3,6-di-tert-butylfluorenyl)zirconium Dichloride [catalyst (a)]”, the polymerization activity in data set [2] (Example 1: propylene 7 bar, 9 minutes, catalyst solution 0.00051 M held 30 minutes, modified methylaluminoxane) stood at 39.90 kg-PP/mmol-Zr·hr. Further, the “solubility determined from the amount” value in data set [1] worked out at 1005 µM. With “Diphenylmethylene(cyclopentadienyl)(2,7-diphenyl-3,6-di-tert-butylfluorenyl)zirconium Dichloride [catalyst (g), reference compound]”, in data set [2] (Comparative Example 1: propylene 7 bar, 10 minutes, supernatant catalyst solution held 30 minutes, assuming catalyst concentration 0.00050 M), the polymerization activity is given as 3.00 kg-PP/mmol-Zr·hr. Also, the “solubility determined from the amount” value in data set [1] is listed as “not more than 0.211 mmol/L”. Take “Methyl(p-tolyl)methylene(cyclopentadienyl)(2,7-diphenyl-3,6-di-tert-butylfluorenyl)zirconium Dichloride [catalyst (e)]”: the “solubility determined from the amount” value in data set [1] worked out at 6221 µM. The same measure, in the same setting: to “n-octyl(phenyl)methylene(cyclopentadienyl)(2,7-diphenyl-3,6-di-tert-butylfluorenyl)zirconium Dichloride [catalyst (f)]” belongs 7683 µM.
